We go through 1 molecule from patent US11865126B2, “Method for treating anxiety disorders, headache disorders, and eating disorders with psilocybin” (priority 2019, dated 2024).

For one series, the system named is healthy subjects. Nature of the series: Toronto Empathy Questionnaire (TEQ). Format: in vivo, human. The text has this:
In some embodiments, the Toronto Empathy Questionnaire (TEQ) is utilized to evaluate the safety and/or efficacy of psilocybin. The TEQ represents empathy as a primarily emotional process. […] The TEQ is a brief, reliable and valid instrument for the assessment of empathy. In some embodiments, after treating according to the methods of the disclosure, a subject's TEQ score increases by about 5%, about 10%, about 15%, about 20%, about 25%, about 30%, about 35%, about 40%, about 45%, about 50%, about 55%, about 60%, about 65%, about 70%, about 75%, about 80%, about 85%, about 90%, about 95%, or about 100%, about 110%, about 120%, about 130%, about 140%, about 150%, about 160%, about 170%, about 180%, about 190%, about 200%, about 210%, about 220%, about 230%, about 240%, about 250%, about 260%, about 270%, about 280%, about 290%, or about 300%, or more, compared to prior to treatment.
The following list of outcome measures are non-exhaustive. • a. The short-term change from Baseline (Day −1 [Visit 2]) to Day 7 (Visit 5) in cognitive measures of attention, spatial and working memory and executive function was measured by a composite score of the CANTAB Panel (Spatial Working Memory [SWM], Rapid Visual Information Processing [RVP], Paired Associates Learning [PAL]). • b. The short-term change from Baseline (Day −1 [Visit 2]) to Day 7 (Visit 5) in Social Cognition Panel scales (Pictorial Empathy Test [PET], Reading the Mind in the Eyes Test [RMET], Toronto Empathy Questionnaire [TEQ], Social Value Orientation [SVO], Scale of Social Responsibility [SSR]). • c. The change from Baseline (Day −1 [Visit 2]) to Day 28 (Visit 6) in cognitive measures of attention, spatial and working memory and executive function as measured by a composite score of the CANTAB Panel (SWM, RVP, PAL). • d. The long-term change from Baseline (Day −1 [Visit 2]) to Day 84 (Visit 7) in Social Cognition Panel scales (PET, RMET, TEQ, SVO, SSR). • e. Dose-related differences between cognitive effects of psilocybin at Baseline (Day −1 [Visit 2]), Day 7 (Visit 5) and Day 28 (Visit 6), as measured by a composite score of the CANTAB Panel (SWM, RVP, PAL). • f. Dose-related differences between psychological effects of psilocybin at Baseline (Day −1 [Visit 2]), Day 7 (Visit 5) and Day 84 (Visit 7), as measured by Social Cognition Panel scales (PET, RMET, TEQ, SVO, SSR). • g. Differences in cognitive effects of psilocybin between psilocybin-naïve and experienced subjects at Baseline (Day −1 [Visit 2]), Day 7 (Visit 5) and Day 28 (Visit 6), as measured by a composite score of the CANTAB Panel (SWM, RVP, PAL). • h. Differences in Positive and Negative Affect Schedule (PANAS) after study drug administration on Day 0 (Visit 3). • i. Differences between psilocybin and placebo in the Emotion Recognition Test (ERT), Intra-Extra Dimensional Set Shift (IED), One Touch Stockings (OTS), Verbal Fluency and Digit Span Forward at Day 7 (Visit 5). • j. A composite score of the CANTAB Panel, including the following tests: • i. Spatial Working Memory (SWM) (performed at Visit 2, Visit 5, and Visit 6). • ii. Rapid Visual Information Processing (RVP) (performed at Visit 2, Visit 5, and Visit 6). • iii. Paired Associates Learning (PAL) (performed at Visit 2, Visit 5, and Visit 6). • k. Cognitive Flexibility Panel • i. Emotion Recognition Task (ERT) (performed at Visit 5). • ii. Intra-Extra Dimensional Set Shift (IED) (performed at Visit 5). • iii. One Touch Stockings (OTS) (performed at Visit 5). • iv. Verbal Fluency (performed at Visit 5). • v. Digit Span Forward (performed at Visit 5). • l. Five Dimension Altered States of Consciousness questionnaire (5D-ASC) (performed at Visit 3). • m. PANAS (performed at Visit 2 and Visit 3). • n. NEO-Five Factor Inventory (NEO-FFI) (performed at Visit 2, Visit 5, and Visit 7). • o. Symptom Checklist-90 item (SCL-90) (performed at Visit 2, Visit 5, and Visit 7). • p. […]

For another series, the system named is female Wistar rats. Put plainly: Binge eating model: chow, chocolate and total food intake. The conditions noted are these: across the whole study.

As for `CN(C)CCc1c[nH]c2cccc(OP(=O)(O)O)c12` [psilocybin], in the series on healthy subjects (Day 7, MMRM), the “TEQ change from baseline, LS mean difference Psilocybin 10 mg - Placebo” value turned out to be 0.1; the “TEQ change from baseline, LS mean difference Psilocybin 25 mg - Placebo” value was 0.2; the “TEQ change from baseline, LS mean difference Psilocybin 25 mg-10 mg” value is 0.1. In the series on healthy subjects (Day 84, MMRM), the “TEQ change from baseline, LS mean difference Psilocybin 10 mg - Placebo” value came to 0.1; the “TEQ change from baseline, LS mean difference Psilocybin 25 mg - Placebo” value was determined as 0.1; the “TEQ change from baseline, LS mean difference Psilocybin 25 mg-10 mg” value was found to be 0.0. Further, the “TEQ change from baseline, LS mean” value with healthy subjects (Psilocybin 10 mg, Day 84, MMRM) is on record as −0.1. Moreover, the “TEQ change from baseline, LS mean” value in the series with healthy subjects (Psilocybin 25 mg, Day 84, MMRM) was −0.0. In addition, the “Food intake over the 24 hour period (normal feeding behaviour)” value with female Wistar rats is given as “not significantly altered”.
